The source of these data is patent US20200109114A1, “SOLID STATE FORMS OF N-[2-[(I S)-1 -(3-ETHOXY-4-METHOXYPHENYL)-2-(METHYL SULFONYL)ETHYL]-2,3-DIHYDRO-1,3-DIOXO-L H-ISOINDOL-4-YL]ACETAMIDE AND PROCESS FOR PREPARATION THEREOF” (MSN LABORATORIES PRIVATE LIMITED, R&D CENTER, priority 2016, published 2020).

Data set [1] is described as follows: Hygroscopicity of crystalline form-M. The class given is physicochemical. From the text: The crystalline form-M of compound of formula-1 of the present invention is non-hygroscopic in nature which is highly advantageous for the formulators.
The nature of data set [2]: Solid state stability of crystalline form-M at various conditions (stress, UV light, thermal, humidity). It is filed as physicochemical. Here is the method: The crystalline form-M of the present invention is stable at various conditions viz.,
a) Stress (10 ton pressure, 3 min) b) UV light (254 nm, 24 hrs) c) Thermal (60° C., 24 hrs) d) Hygroscopicity (75% RH, 24 hrs))

Consider `CCOc1cc([C@@H](CS(C)(=O)=O)N2C(=O)c3cccc(NC(C)=O)c3C2=O)ccc1OC` [crystalline form-M, N-[2-[(1S)-1-(3-ethoxy-4-methoxyphenyl)-2-(methylsulfonyl)ethyl]-2,3-dihydro-1,3-dioxo-1H-isoindol-4-yl]acetamide], for which the hygroscopic nature result in data set [1] is listed as “non-hygroscopic”. The “stability under hygroscopicity condition” value in data set [2] (Hygroscopicity (75% RH, 24 hrs)) is on record as “stable”. For the same molecule, the stability under stress entry in data set [2] (Stress (10 ton pressure, 3 min)) is listed as “stable”. The thermal stability result in data set [2] (Thermal (60° C., 24 hrs)) was “stable”. Also, in data set [2] (UV light (254 nm, 24 hrs)), the “stability under UV light” value is given as “stable”.
